# From US9096643B2, “Cell-protective peptides and uses thereof” (priority 2010, dated 2015)
# No end group written: not given here.
# Experiments:
# [1] = system: neonatal rat CMs (heart cells); test: Apo-ONE caspase 3/7 assay after serum starvation and taxol on coated surfaces; assay type: cell-based, rat (Sprague-Dawley); details: serum-starved, overnight taxol, vs control surfaces, FIG. 4
# Description: Glass coverslips were coated with Az-chitosan, or Az-chitosan conjugated with QHREDGS, RGDS, or a scrambled peptide (DGQESHR). The cells were then seeded (100,000 cells in 50 μL of CM media; seeding density of 88 cells/mm^2) on each surface (N=3), including plain glass as a control, for 15 min. The cells were then supplemented with serum-free media. After 19 hours, 5 μL of taxol (paclitaxel, Sigma), dissolved at 100 μM in DMSO, was added and maintained for 17 hours and 45 min at which time caspase assay was performed. One set of glass surfaces was not exposed to taxol treatment as a negative control.
# The Apo-ONE caspase assay (Promega) was performed according to manufacturer's protocol. The cells were permeabilized and lyzed to release the caspases, which are activated in cells undergoing apoptosis. The assay contains rhodamine 110, bis-(N-CBZ-L-aspartyl-L-glutamyl-L-valyl-L-aspartic acid amide; Z-DEVD-R110). Caspase 3 and 7 are known to cleave the peptide DEVD and the leaving group, rhodamine 110 becomes fluorescent when excited with fluorescent light. The amount of fluorescence is proportional to the level of caspase 3/7 activity in the sample. According to the manufacturer's protocol, the caspase substrate was dissolved in a buffer at 1:100. […] The fluorescence of the buffer was read in the fluorometer at an excitation of 485 nm and a cut off of 520 nm. […]
# [2] = system: neonatal rat CMs (heart cells); test: Immunostaining for cardiac troponin I on coated surfaces; assay type: cell-based, rat (Sprague-Dawley); details: day 8 of cultivation, vs Az-chitosan alone, FIG. 3
# Description: The day before cells were ready to be seeded, the surfaces in the 12-well plates were sterilized by germicidal UV illumination overnight. The PBS surrounding the surfaces was then aspirated off and 100,000 live cells were pipetted onto each surface in 100 μL of culture media. These surfaces were left in the incubator for 20 to 30 min to allow the cells to begin to adhere, and then supplemented with 1 mL of warm CM media. The cells were cultivated for 8 days, with 100% culture media change every 2-3 days. The initial seeding density of heart cells on peptide-chitosan coated surfaces was 88 cells/mm^2. […] Each type of surface was created in triplicate.
# The immunostaining against cardiac troponin I was performed on cells fixed with 4 w/v % paraformaldehyde (PFA, Sigma). The samples were submersed in a blocking solution composed of 10% normal horse serum (NHS, Vector Laboratories) in PBS for 40 min at room temperature. This solution was removed and the sample was submersed in a solution containing primary antibody for 1 hour at 37° C. […] Each sample was made in triplicate and five pictures were taken of each surface to have an adequate representation for quantification. The numbers of nuclei were determined by counting the number of DAPI stained nuclei using the cell counting plugin on ImageJ. The number of CMs was determined by counting the number of successfully stained Troponin I cells.
# Lewis rats = test: Subcutaneous implantation of cardiomyocyte/hydrogel constructs and histological assessment
# Description: Cardiac constructs were made by encapsulation of neonatal Lewis rat cardiomyocytes in Az-chitosan-QHREDGS or Az-chitosan-RGDS. A total of 2×10^6 cardiomyocytes were resuspended in 15 μL of ice cold cardiomyocytes medium with 30% FBS for at least 10 min. These cells were then encapsulated in 100 μL of the hydrogel in transwell plates and constructs (2 mm thick and 6 mm in diameter) were produced. A total of 8 samples were made for each type of hydrogel, and 4 from each group were implanted, while the other 4 were retained as in vitro controls. Samples were cultured at 37° C. for 5 d before they were implanted in vivo.
# Cardiac constructs described above were inserted subcutaneously into the abdomen of Lewis rats. Four samples were implanted for each type of hydrogel. […] Quantification of total SMA and Factor VIII was performed using ImageScope v10 (Aperio Technologies) and mean intensities were averaged for six fields for each sample and normalized to total area. […] Apoptosis was assessed using a TUNEL assay (Roche Applied Science) following the manufacturer's standard protocol.
# [3] = 7 days after subcutaneous implantation
substance,measurement,setting,value
"Az-chitosan-QHREDGS: QHREDGS peptide covalently conjugated to Az-chitosan by EDC chemistry (also: covalently conjugated to Az-chitosan by EDC chemistry, site not given here)",caspase-3/7 activation,[1],significantly lower levels of caspase-3/7 activation
same,percentage of troponin I positive cells,[2],increase in the percentage of troponin I positive cells
same,"cardiomyocytes in implant (sarcomeric α-actinin, troponin I staining)",Lewis rats; [3],larger areas of cardiomyocytes
same,percentage of apoptotic cells (TUNEL),Lewis rats; [3],~1.5%
same,apoptotic cardiomyocytes (troponin I and TUNEL double staining),"Lewis rats; 7 days after subcutaneous implantation, vs RGDS modified hydrogel",fewer apoptotic cardiomyocytes
same,biomaterial degradation and cell infiltration (H&E),Lewis rats; day 7 after subcutaneous implantation,less cell infiltration
same,percentage of SMA+ myofibroblasts,Lewis rats; vs Az-chitosan-RGDS hydrogel,significantly higher percentage of SMA+ myofibroblasts
